“Also recorded” adds a separate entry of the source.

One data set has as its system RSV, strain A2. The data set is described as follows: Production of infectious RSV from infected A549 cells (plaque titer on HEp-2 monolayers). Type of data set: cell-based, Respiratory Syncytial Virus. On the procedure: Cell Culture—A549 cells, a tumor cell line with properties of normal airway epithelial cells, were obtained from American Type Culture Collection (ATCC, Manassas, Va.) and incubated at 37° C. in 5% CO2. The cells were cultured in Eagle's minimum essential medium (MEM, Invitrogen) supplemented with 10% fetal bovine serum (HyClone, Logan, Utah) and […] gentamicin. The A549 cells were subcultured by harvesting in 0.12% trypsin no more than 20 times from stock originally designated at pass 70. To minimize effects of exogenous growth factors or cytokines in this system, the supplemented serum concentration was reduced to 0.5% 24 h prior to and during all experiments with RSV infection. […] RSV Virus—RSV, strain A2, was obtained from Advanced Biotechnologies Inc. (Columbia, Md.) and was used directly as supplied for all experiments. The viral preparation was tested to have a TCID50 titer of ˜1×10^9 in Hep-2 cells at 7 days. […] Levels of Production of Infectious RSV—Production of infectious RSV particles in A549 cell culture in the presence of various concentrations of DIM was measured using a method where the cell free media were titered for RSV infectious activity on a monolayer culture of Hep-2 cells. […] The plaques that appeared around 48 h of incubation were visualized by neutral red staining and counted.

A further data set has as its system cysteinyl leukotrienes. The data set is described as follows: Cysteinyl leukotrienes ELISA in bronchoalveolar lavage fluid (BALF) of RSV infected BALB/c mice. Type of data set: in vivo. The following applies: oral, SC low dose and SC high dose DIM; 6 and 10 days pi; vs RSV-infected, untreated mice; FIG. 7. The procedure:
The Following Experimental BALB/c Groups and Treatment Protocol Using DIM were Studied: • 1. RSV infected positive control group, infected with RSV and injected subcutaneously (SC) once daily with DMSO/Phosphate Buffered Saline (PBS) vehicle. • 2. RSV infected, Low dose Parenteral DIM group (15 mg/kg/day), injected SC once daily with DIM suspension • 3. RSV infected, High dose DIM Group (150 mg/kg/day), injected SC once daily with DIM suspension • 4. RSV infected, orally treated DIM group (250 mg/kg/day from absorption enhanced DIM [Example 6.1]), added to powdered feed • 5. Uninfected negative control group, nasally administered vehicle only, and injected subcutaneously (SC) once daily with DMSO/PBS vehicle
Mouse treatment, infection and harvest. […]
To determine viral titer, the lung was homogenized in DMEM supplemented with 2% FBS (2 ml DMEM per 100 mg tissue) in cold. […] Multiple, 4 μm thick sections were stained with haematoxylin & eosin (H&E) and scored for cellular inflammation under light microscopy by two independent researchers. Inflammatory infiltrates were scored by enumerating the layers of inflammatory cells surrounding the vessels and bronchioles. […] A total of about 20 spaces per lung were counted for each animal. […] The concentration of cysteinyl leukotrienes conjugates in the BALF was determined by an ELISA kit following the manufacturer's protocol (R&D Systems, Minneapolis, Minn.). […]
In general terms: An ELISA detects its analyte on a solid surface through an enzyme-linked reagent.

In another data set the test system is breast cancer cells. The following applies: cited from earlier work.
For data set [1] the following is noted: lung tissue; cited from earlier work.

For the compound `c1ccc2c(Cc3c[nH]c4ccccc34)c[nH]c2c1` [DIM, 3,3′-diindolylmethane], in the data set with RSV, strain A2 (72 hour treatment of infected A549 cells, DIM 70, 210, 700 nM, LY294002 2 and 5 μM, FIG. 2), the “RSV yield: viral replication and production of extracellular, progeny RSV viral particles” value was “reduced production of infectious, progeny RSV virons; also recorded: significantly reduced viral replication and production of extracellular, progeny RSV viral particles”. In the data set on RSV, strain A2 (infected A549 cells, 72 h, nM DIM vs higher concentrations of LY294002), the “Reduction of RSV replication by DIM compared with LY294002” value is reported as “equal or greater to that caused by LY294002; also recorded: comparable to that seen with higher concentrations of LY294002”. The “leukotrienes in broncho-alveolar lung fluid (BALF)” value in the data set on cysteinyl leukotrienes is recorded as “significant reduction in leukotriene levels; also recorded: Reduction in pulmonary leukotriene levels; also recorded: significantly lower levels of lung inflammation associated leukotrienes”. Further, the estrogenic activity result in the data set with breast cancer cells is reported as “estrogenic”. Further, in data set [1], the tissue distribution result was “concentrated in lung tissue”.

Source of the values: US8552052B2, “Use of diindolylmethane-related indoles for the treatment and prevention of respiratory syncytial virus associated conditions” (BioResponse, L.L.C., priority 2004, dated 2013).
